Assay results from PubChem BioAssay (NCI).
“And” between values parts separate entries of the source, which are not always exact repeats. Equal entries are not always repeated.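 Exposure lasted 48 hours, with cells grown in 96-well plates and compounds tested at five concentrations. At the GI50, growth is halved. TGI is the concentration that stops growth completely.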

test system: M14 melanoma; test: NCI-60 cell line screen, 48 h

**Q.** Which TGI does the source give for CS(=O)(=O)N/N=C/CN1C(=O)c2ccccc2C1=O here?
**A.** Its TGI is > 100 µM.

**Q.** CCOC(=O)/C=C/C(C(=O)/C=C/c1ccc(OC2CCCCO2)c(OC)c1)=C(O)\C=C\c1ccc(OC2CCCCO2)c(OC)c1 (configuration not stated) was tested. Which GI50 did it give?
**A.** The GI50 was 3.48 µM.

**Q.** What about the TGI of the same molecule?
**A.** Its TGI is 15.3 µM.

**Q.** How did the TGI turn out when COc1ccc(OC)c(NC(=O)C(=O)NNC(=O)c2sc(NNC(C)=O)nc2C)c1 was run?
**A.** The TGI was > 100 µM.

**Q.** With O=[N+]([O-])c1nccn1CC(O)c1ccc(F)cc1 (configuration not stated) as the molecule, how does the TGI read?
**A.** The TGI was > 100 µM.

**Q.** How did the TGI turn out when COc1ccc(NC(=O)CCc2cc(-c3ccc(O)c(OC)c3)nc(NC#N)n2)cc1 was run?
**A.** The TGI was > 100 µM.

**Q.** O=C1c2ccccc2C2(Br)C(=O)c3ccccc3C12 (configuration not stated) was tested. Which TGI did it give?
**A.** Its TGI is > 100 µM.

**Q.** Which GI50 does the source give for COc1ccc(N(C)c2ncnc3occ(C)c23)cc1 here?
**A.** Its GI50 is < 0.01 µM.

**Q.** And the TGI?
**A.** Its TGI is > 100 µM.

**Q.** What does the source list for CCOC(=O)Oc1c(OC)cc(C(=O)NC2CCc3cc(OC)c(OC)c(OC)c3-c3ccc(SC)c(=O)cc32)cc1OC (configuration not stated)?
**A.** GI50: 0.0166 µM; TGI: 10.7 µM

**Q.** With CC(=O)Nc1ccc(C(=O)NN2C(=O)C(Cl)C2c2ccccc2)cc1 (configuration not stated) as the molecule, how does the TGI read?
**A.** The TGI was > 100 µM.

**Q.** Which GI50 does the source give for COC(=O)c1cc2c(cc1O)[C@@H](NC(C)=O)CCc1cc(OC)c(OC)c(OC)c1-2 here?
**A.** Its GI50 is 0.0293 µM.

**Q.** What about the TGI of the same molecule?
**A.** Its TGI is > 100 µM.

**Q.** CC(C)(C)OC(=O)NCC(=O)OCc1ccccc1 was tested. Which TGI did it give?
**A.** The TGI was > 100 µM.

**Q.** Which GI50 does the source give for COCCOc1cc(F)c2c(Nc3ccc(NC(=O)Cn4cc(C(C)C)nn4)cc3)ncnc2c1 here?
**A.** Its GI50 is > 100 µM.

**Q.** And the TGI?
**A.** Its TGI is > 100 µM.

**Q.** How did the TGI turn out when Cc1ccc(SC(C)/C=C/NNC2=NC(c3ccccc3)C(c3ccccc3)=NN2)cc1 (configuration not stated) was run?
**A.** The TGI was > 100 µM.

**Q.** Which TGI does the source give for CC(C)(C)[SiH]12(OC(C(F)(F)F)(C(F)(F)F)c3ccccc31)OC(C(F)(F)F)(C(F)(F)F)c1ccccc12 here?
**A.** Its TGI is 12.7 µM.

**Q.** Cc1nnc(S(=O)(=O)c2ccc(N=Nc3c(N)nc(N)nc3N)cc2)s1 was tested. Which TGI did it give?
**A.** The TGI was > 100 µM.

**Q.** For O=S(O)CCCCSSCC(O)C(O)CSSCCCCS(=O)O (configuration not stated), which TGI is on record?
**A.** The TGI was 24.2 µM and 30.6 µM.

**Q.** How did the GI50 turn out when CNCCNc1c2c(c(NCCNC)c3c(CN(C)C)c[nH]c13)C(=O)c1ccccc1C2=O was run?
**A.** Its GI50 is 5.58 µM.

**Q.** What about the TGI of the same molecule?
**A.** The TGI was 15.5 µM.

**Q.** O=C1OC(c2ccccc2)=N/C1=C/C=C/c1ccco1 was tested. Which TGI did it give?
**A.** The TGI was > 100 µM.

**Q.** Which results are given for Clc1ccc2c(NCCCNc3nccc(Nc4ccc(Br)cc4)n3)ccnc2c1?
**A.** GI50: 1.71 µM; TGI: 3.5 µM

**Q.** Cc1ccccc1N1C(=O)/C(=C/c2ccc(N(CCC#N)CCC#N)cc2)N=C1c1cc([N+](=O)[O-])ccc1Cl was tested. Which TGI did it give?
**A.** The TGI was > 100 µM.

**Q.** Which results are given for CC1OC2CC(=O)OC2C2=C1C(=O)c1c(O)cccc1C2=O (configuration not stated)?
**A.** GI50: 0.0611 µM; TGI: 0.193 µM

**Q.** Which GI50 does the source give for C/C1=C\CC[C@@]2(C)O[C@@H]2[C@H]2OC(=O)[C@@H](CN(C)C)[C@@H]2CC1 here?
**A.** The GI50 was 16.3 µM.

**Q.** And the TGI?
**A.** The TGI was 35.2 µM.

**Q.** What does the source list for C=C(C=O)C1CCC2(C(=O)O)CCC3(C)C(CCC4C5(C)CCC(O)C(C)(C)C5CCC43C)C12 (configuration not stated)?
**A.** GI50: 2.23 µM; TGI: 6.92 µM

**Q.** For Cc1ccc(S(=O)(=O)NCC2CCCCC2=O)cc1 (configuration not stated), which TGI is on record?
**A.** The TGI was > 100 µM.

**Q.** What does the source list for CCC[CH2][Sn]([CH2]CCC)([CH2]CCC)[O]C(=O)CC?
**A.** GI50: 0.167 µM; TGI: 0.343 µM

**Q.** Which TGI does the source give for CNC(=S)NC1CCCCC1NC(=S)NC (configuration not stated) here?
**A.** Its TGI is > 100 µM.

**Q.** Which results are given for C=C(C)[C@@]12OC3(/C=C/C=C/CCCCC)O[C@@H]1[C@@H]1[C@@H]4O[C@]4(CO)[C@@H](O)[C@]4(O)C(=O)C(C)=C[C@H]4[C@@]1(O3)[C@H](C)[C@H]2OC(=O)c1ccccc1?
**A.** GI50: 1.57 µM; TGI: 5.38 µM

**Q.** Which results are given for C=CC1CC12C(=O)C1OC2(C)C2C(=O)c3cc4ccccc4cc3C(=O)C12 (configuration not stated)?
**A.** GI50: 37.8 µM; TGI: > 100 µM

test system: NCI-H23 lung; test: NCI-60 cell line screen, 48 h

**Q.** O=[n+]1c2c(n([O-])c3ccccc31)CCCCCCCCCC2 was tested. Which TGI did it give?
**A.** Its TGI is > 100 µM.

**Q.** For CNC(=S)N(C)C(=S)Nn1c(=O)c(C)nn(C)c1=S, which TGI is on record?
**A.** Its TGI is > 100 µM.

**Q.** For CCCCCCCCCC/C=C/CC(=O)SCCNC(=O)CCNC(=O)[C@@H](O)C(C)(C)COP(=O)(O)OP(=O)(O)OCC1OC(n2cnc3c(N)ncnc32)C(O)C1OP(=O)(O)O (some centres not stated), which TGI is on record?
**A.** Its TGI is > 10 µM.

**Q.** What does the source list for OCCN1CN(CCO)CN(c2nc(N3CN(CCO)CN(CCO)C3)nc(N3CN(CCO)CN(CCO)C3)n2)C1?
**A.** GI50: 1.42 ng/mL; TGI: 4.39 ng/mL

**Q.** Which GI50 does the source give for Cc1c2cccnc2c(C)c2c1c1cc(CO)ccc1n2C here?
**A.** The GI50 was 2.31 µM.

**Q.** What about the TGI of the same molecule?
**A.** Its TGI is 16 µM.

**Q.** With O=C1CN=C(C[N+](=O)[O-])c2ccccc21 as the molecule, how does the TGI read?
**A.** The TGI was > 100 µM.

**Q.** Which TGI does the source give for CCCCN(CCCC)CC(C(=O)Nc1ccc([N+](=O)[O-])cc1[N+](=O)[O-])/C(C)=N\NC(=S)NN (configuration not stated) here?
**A.** Its TGI is > 100 µM.

**Q.** For S=C(N/N=C/c1ccco1)NC12CC3CC(CC(C3)C1)C2, which TGI is on record?
**A.** The TGI was > 100 µM.

**Q.** How did the TGI turn out when CS(=O)(=O)N/N=C/CN1C(=O)c2ccccc2C1=O was run?
**A.** Its TGI is > 100 µM.
